The nature of series [1]: Inhibition of PDGFR expressed in NIH cells by Western blot analysis. In kind it is cell-based. Background: In western blotting, separated proteins are transferred to a membrane and probed.
Series [2] deals with Epidermal growth factor receptor (Homo sapiens, UniProt P00533). The series can be described thus: Inhibition of EGFR expressed in DHER14 cells by Western blot analysis. Format: cell-based.
Series [3] deals with Receptor tyrosine-protein kinase erbB-2 (Homo sapiens, UniProt P04626). The series can be described thus: Inhibition of Her2 expressed in CSH12 cells by Western blot analysis. Format: cell-based.
The target of series [4] is Insulin-like growth factor 1 receptor (Homo sapiens, UniProt P08069). The series can be described thus: Inhibition of IGF1R by ELISA. A general note: ELISA stands for enzyme-linked immunosorbent assay.
A short description of series [5]: Inhibition of VEGFR expressed in PAE cells by Western blot analysis. In kind it is cell-based.
The next series deals with Plasma. The series can be described thus: Ex vivo stability in human plasma assessed as radioactivity at 300 uCi upto 120 hrs. In kind it is ADME, cell-free.

Chain of Insulin-like growth factor 1 receptor (P08069 31-736 limits assumed): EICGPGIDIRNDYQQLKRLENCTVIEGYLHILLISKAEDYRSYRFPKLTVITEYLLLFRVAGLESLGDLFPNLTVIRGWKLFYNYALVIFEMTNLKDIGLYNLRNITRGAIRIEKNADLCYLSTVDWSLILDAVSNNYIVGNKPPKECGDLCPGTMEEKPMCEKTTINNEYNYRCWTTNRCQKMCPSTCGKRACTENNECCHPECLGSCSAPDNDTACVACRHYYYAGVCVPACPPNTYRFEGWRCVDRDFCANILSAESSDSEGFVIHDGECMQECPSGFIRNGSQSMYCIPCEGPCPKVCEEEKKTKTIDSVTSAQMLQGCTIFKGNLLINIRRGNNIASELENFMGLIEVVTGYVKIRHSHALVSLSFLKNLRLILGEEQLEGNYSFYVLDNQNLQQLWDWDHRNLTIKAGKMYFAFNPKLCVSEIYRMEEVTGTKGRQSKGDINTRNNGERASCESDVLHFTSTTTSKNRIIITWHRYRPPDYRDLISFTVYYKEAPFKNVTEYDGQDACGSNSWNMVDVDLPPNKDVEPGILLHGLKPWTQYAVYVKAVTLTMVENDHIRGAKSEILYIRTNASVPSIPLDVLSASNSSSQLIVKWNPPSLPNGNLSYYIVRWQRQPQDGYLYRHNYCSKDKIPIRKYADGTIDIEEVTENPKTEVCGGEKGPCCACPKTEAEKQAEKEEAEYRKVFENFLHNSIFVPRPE
Chain of Insulin-like growth factor 1 receptor (P08069 741-1367 limits assumed): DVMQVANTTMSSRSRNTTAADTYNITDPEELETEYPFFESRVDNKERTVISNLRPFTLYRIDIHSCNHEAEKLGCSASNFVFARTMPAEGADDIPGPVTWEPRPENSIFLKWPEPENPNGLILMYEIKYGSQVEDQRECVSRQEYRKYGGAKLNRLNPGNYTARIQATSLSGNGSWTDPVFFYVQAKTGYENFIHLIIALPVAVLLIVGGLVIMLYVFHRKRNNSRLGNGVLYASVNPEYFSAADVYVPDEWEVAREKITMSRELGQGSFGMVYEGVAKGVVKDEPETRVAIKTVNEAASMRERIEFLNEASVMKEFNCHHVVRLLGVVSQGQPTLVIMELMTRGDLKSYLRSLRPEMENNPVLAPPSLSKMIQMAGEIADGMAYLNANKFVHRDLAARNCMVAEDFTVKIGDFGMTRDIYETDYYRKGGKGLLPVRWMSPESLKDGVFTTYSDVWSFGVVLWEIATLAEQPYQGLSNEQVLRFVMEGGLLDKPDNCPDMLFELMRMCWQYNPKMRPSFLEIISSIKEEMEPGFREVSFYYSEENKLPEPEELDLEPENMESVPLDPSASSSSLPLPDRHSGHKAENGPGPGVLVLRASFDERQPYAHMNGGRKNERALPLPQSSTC
Chain of Receptor tyrosine-protein kinase erbB-2 (P04626 whole entry): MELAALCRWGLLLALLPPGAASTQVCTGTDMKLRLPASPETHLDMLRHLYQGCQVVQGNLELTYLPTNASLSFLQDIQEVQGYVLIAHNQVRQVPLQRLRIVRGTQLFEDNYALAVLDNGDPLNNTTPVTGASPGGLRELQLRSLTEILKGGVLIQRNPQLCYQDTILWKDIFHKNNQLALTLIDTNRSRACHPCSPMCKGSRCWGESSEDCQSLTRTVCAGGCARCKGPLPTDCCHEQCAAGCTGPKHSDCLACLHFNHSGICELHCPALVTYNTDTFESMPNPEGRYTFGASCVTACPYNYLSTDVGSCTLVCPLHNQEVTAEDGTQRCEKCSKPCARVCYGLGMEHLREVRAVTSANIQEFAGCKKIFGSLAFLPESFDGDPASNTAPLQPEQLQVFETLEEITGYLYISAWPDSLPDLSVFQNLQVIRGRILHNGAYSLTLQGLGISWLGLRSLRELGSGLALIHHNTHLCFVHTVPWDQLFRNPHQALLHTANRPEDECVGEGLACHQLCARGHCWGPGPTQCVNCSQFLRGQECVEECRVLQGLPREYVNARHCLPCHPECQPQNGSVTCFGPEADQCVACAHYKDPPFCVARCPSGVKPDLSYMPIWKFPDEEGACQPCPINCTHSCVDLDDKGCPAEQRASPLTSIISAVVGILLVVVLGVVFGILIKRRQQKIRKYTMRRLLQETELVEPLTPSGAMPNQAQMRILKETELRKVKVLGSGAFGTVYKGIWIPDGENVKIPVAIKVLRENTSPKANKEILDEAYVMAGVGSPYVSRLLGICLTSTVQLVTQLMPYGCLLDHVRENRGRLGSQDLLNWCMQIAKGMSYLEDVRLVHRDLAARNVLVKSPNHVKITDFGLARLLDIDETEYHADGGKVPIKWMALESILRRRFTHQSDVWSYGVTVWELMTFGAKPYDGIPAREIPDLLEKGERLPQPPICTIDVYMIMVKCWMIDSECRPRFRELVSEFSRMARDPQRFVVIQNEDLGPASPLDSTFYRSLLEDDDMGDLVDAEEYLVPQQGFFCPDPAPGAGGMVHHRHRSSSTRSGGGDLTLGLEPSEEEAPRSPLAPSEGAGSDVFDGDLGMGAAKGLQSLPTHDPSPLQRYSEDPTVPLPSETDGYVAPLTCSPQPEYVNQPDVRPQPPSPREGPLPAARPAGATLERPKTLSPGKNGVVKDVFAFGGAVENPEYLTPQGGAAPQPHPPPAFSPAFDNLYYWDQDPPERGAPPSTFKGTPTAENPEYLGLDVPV
Chain of Epidermal growth factor receptor (P00533 whole entry): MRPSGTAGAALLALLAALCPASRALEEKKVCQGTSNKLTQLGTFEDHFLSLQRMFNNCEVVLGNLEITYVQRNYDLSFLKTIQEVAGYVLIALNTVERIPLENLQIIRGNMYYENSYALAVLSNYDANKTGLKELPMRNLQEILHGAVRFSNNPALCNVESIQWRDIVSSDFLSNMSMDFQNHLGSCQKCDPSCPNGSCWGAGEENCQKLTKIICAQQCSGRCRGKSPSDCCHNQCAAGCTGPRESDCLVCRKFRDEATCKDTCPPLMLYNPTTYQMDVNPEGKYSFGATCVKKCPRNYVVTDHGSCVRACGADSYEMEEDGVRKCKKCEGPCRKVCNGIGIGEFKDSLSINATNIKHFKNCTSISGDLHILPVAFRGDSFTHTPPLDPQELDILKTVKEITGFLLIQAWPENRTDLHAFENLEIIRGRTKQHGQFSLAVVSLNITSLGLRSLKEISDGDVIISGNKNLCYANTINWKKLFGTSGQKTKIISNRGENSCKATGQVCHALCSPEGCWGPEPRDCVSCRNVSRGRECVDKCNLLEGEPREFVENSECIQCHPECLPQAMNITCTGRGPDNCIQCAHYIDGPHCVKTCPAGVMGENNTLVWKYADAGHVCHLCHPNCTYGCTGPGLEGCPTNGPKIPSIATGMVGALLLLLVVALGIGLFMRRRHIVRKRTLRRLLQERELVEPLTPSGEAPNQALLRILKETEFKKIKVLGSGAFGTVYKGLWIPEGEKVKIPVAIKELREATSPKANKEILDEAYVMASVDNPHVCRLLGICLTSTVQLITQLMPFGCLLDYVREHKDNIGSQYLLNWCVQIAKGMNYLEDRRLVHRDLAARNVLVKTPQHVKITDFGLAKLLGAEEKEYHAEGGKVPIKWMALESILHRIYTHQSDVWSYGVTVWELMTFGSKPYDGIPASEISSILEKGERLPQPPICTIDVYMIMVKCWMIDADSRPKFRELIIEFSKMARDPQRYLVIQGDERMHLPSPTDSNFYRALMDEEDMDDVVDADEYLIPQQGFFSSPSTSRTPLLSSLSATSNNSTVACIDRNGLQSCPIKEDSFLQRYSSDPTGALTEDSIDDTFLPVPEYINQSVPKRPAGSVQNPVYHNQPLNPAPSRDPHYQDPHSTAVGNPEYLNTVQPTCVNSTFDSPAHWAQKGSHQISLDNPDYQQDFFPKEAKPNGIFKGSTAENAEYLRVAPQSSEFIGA

Take `COc1cc2nccc(Oc3ccc(NC(=O)Nc4ccc(F)cc4F)cc3F)c2cc1OC`: the IC50 is 2 nM in series [1], over 500 nM in series [2], over 500 nM in series [3] and over 2000 nM in series [4].
`COc1cc2nccc(Oc3ccc(NC(=O)Nc4ccc(F)cc4)cc3F)c2cc1OC`: the concentration for half-maximal inhibition (IC50) in series [5] was 8 nM; in series [1], 2 nM; in series [2], over 500 nM; in series [3], over 500 nM; in series [4] it was over 2000 nM.
For `COc1cc2nccc(Oc3ccc(NC(=O)Nc4ccccc4F)cc3F)c2cc1OC`, the IC50 in series [5] is 4 nM; in series [1], 2 nM; in series [2], over 500 nM; in series [3], over 500 nM; in series [4], over 2000 nM.
For the molecule `COc1cc2nccc(Oc3ccc(NC(=O)Nc4ccc([18F])cc4)cc3F)c2cc1OC`, the Stability entry in the series on Plasma is on record as “Stable”.

As a reminder, the IC50 is the concentration at which inhibition is half-maximal.

Source of the values: ChEMBL document CHEMBL1144754, “Formation of fluorine-18 labeled diaryl ureas--labeled VEGFR-2/PDGFR dual inhibitors as molecular imaging agents for angiogenesis” (Bioorg Med Chem, 2008).
